Measurements published in paper PMC7496275, “Pentathiepins: A Novel Class of Glutathione Peroxidase 1 Inhibitors that Induce Oxidative Stress, Loss of Mitochondrial Membrane Potential and Apoptosis in Human Cancer Cells” (Chemmedchem, 2020).

Key:
[1] = tested on: SISO human cervix cancer cell line; test: Crystal violet proliferation assay; assay type: cell-based; details: Homo sapiens, 37 °C, 96 h, n>4, read-out: Inhibition of cell viability GI50 (CI 95 %)
Experimental: GI50 values for 50 % growth inhibition were all in a low micro molar range (Table 1). […] The indole−pentathiepins gave lower GI50 values than the pyrrolo[1,2‐a]quinoxaline derivatives. […] There was also a trend showing that an electron rich substituent in position R^2 increased the antiproliferative effect in SISO cells.
Crystal violet proliferation assay: To measure cell growth inhibition, the crystal violet assay was carried out as previously described.37 Adherent cell lines were seeded out in a 96‐well plate (1000 cells per 200 μL culture medium) and allowed to attach for 24 h. Cells were exposed to nine serial dilutions of compound, added to the medium from 1000‐fold concentrated stock solutions in DMF. For the controls, cells were exposed to 0.1 % DMF alone. After addition of compounds, plates for the detection of the starting point of the proliferation at incubation time zero (t 0) were stopped with glutaraldehyde (see below), washed with Dulbecco's buffer (containing KCl 0.2 g/L, MgSO4 ⋅ 7 H2O 0.1 g/L, Na2HPO4 ⋅ >7 H2O 1.55 g/L, KH2HPO4 0.2 g/L and NaCl 8 g/L in water) and stored at 4 °C until the staining procedure. Treated cells were incubated for 96 h in the incubator, the medium was removed and replaced with 100 μL of 1 % glutaraldehyde in Dulbecco's buffer for 20 min. After washing twice with 150 μL of Dulbecco's buffer, the buffer was removed and replaced with 100 μL of a 0.02 % crystal violet solution dissolved in water for 30 min and subsequently washed in tap water for 15 min. Water was removed and replaced with 100 μL of ethanol (70 % in water) followed by shaking on a 96‐well shaker (MS3 digital, IKA‐Werke, Germany) for 2 h. Optical density was measured with a SpectraMax Plus 383 microtiter plate reader at λ=570 nm (Molecular Devices, USA). The optical density of t 0 plates at the time of treatment were subtracted from optical densities of plates with treated cells after 96 h (T), and the growth inhibition relative to untreated, control cells (C) as described.22 Growth inhibition concentrations at 50 % (GI50) were calculated by determining the inflection point of the sigmoidal log dose‐growth inhibition (%T/C) curves with the GraphPad Prism 6.0 software.

HL-60 cells = test: MTT cell viability assay; assay type: cell-based; details: Homo sapiens, 48 h, read-out: IC50 for viability reduction
Experimental: We determined IC50 values for the viability reduction in a low micro molar range (Figure 6B).
MTT cell viability assay: For the detection of the inhibition of the viability of cells by the pentathiepins, the MTT‐viability assay was used.37 Briefly, 10 000 and 20 000 cells for the suspension cell lines HL‐60 and Gumbus, respectively, were seeded out in 50 μL medium per well and immediately exposed to the compounds. For the adherent cell lines SISO and HAP‐1, 3000 and 5000 cells, respectively, were seeded out in 96‐well plates and allowed to attach for 24 h. Cells were exposed to nine serial dilutions of compound, added to the medium from 1000‐fold concentrated stock solution in DMF. For the controls, cells were exposed to 0.1 % DMF alone. After 48 h incubation, 20 μL of the MTT stock solution (2.5 mg/mL in PBS) were added to each well to give a final concentration of 1.0 mM. The formazan crystals that formed after 4 h at 37 °C were dissolved by sonification after adding 100 μL of 0.04 M HCl in isopropanol for the suspension cell lines, or with 50 μL DMSO after aspiration of the medium for the adherent cell lines. Optical density was measured with a SpectraMax Plus 383 microtiter plate read at λ=570 nm (Molecular Devices, USA). […]

HAP-1 cells = test: Alkaline comet assay; assay type: cell-based, human; details: 25 μM, 15 min at 0 °C
Experimental: To assess the induction of DNA strand breaks by pentathiepin 4 the Comet Assay was used. The SISO and HAP‐1 cell lines were treated with either 1 % DMF (solvent control), 20 μM H2O2 (positive control) or 25 μM 4 for 15 min at 0 °C. The DNA in the comet head corresponds to still intact genomic DNA while the tail forms due to the damage of nuclear DNA (Figure 9B). […] For HAP‐1 cells a greater reduction of intact DNA from 86 % in control cells to 66 % in pentathiepin‐incubated cells was observed.
Alkaline comet assay to assess induction of DNA strand breaks: The method was adapted from Olive and Banath.40 The alkaline protocol allows for the detection of single and double strand breaks as well as alkali‐labile sites and is based on the different electrophoretic mobility of intact and damaged nuclear DNA. […] The induction of strand breaks creates free charged ends that drift out and form the characteristic comet tail. The percentage of DNA that is located in the comet head was selected as descriptor, which corresponds to the amount of still intact genomic DNA.
Briefly, SISO and HAP‐1 cells were harvested by trypsinization and a single cell suspension with 50 000 cells per mL PBS was prepared. Per condition 50 000 cells were incubated on ice (to impair DNA repair) with either the solvent control DMF (1.0 %), 20 μM H2O2 or 25 μM 4 for 15 min. Afterwards, 400 μL of the cell suspension were mixed with 1.2 mL 1 % low melting point agarose (Carl Roth, Germany) at 40 °C and evenly distributed on agarose‐precoated (GeneOn, Germany) glass slides (Thermo Fisher). After 3 min polymerization the slides were horizontally submerged in lysis buffer (1.2 M NaCl (Carl Roth, Germany), 0.1 % N‐Lauryl‐Sarcosinate (Merck), 0.1 M Na‐EDTA, 0.26 M NaOH) and placed at 4 °C overnight. Before electrophoresis at 0.6 V/cm for 25 min the slides were rinsed three times in rinse/electrophoresis buffer (0.002 M Na‐EDTA, 0.03 M NaOH). Afterwards, the slides were neutralized in distilled water and subsequently stained with 250 μL of a 10 μg/mL PI in water solution for 20 min. Finally, the slides were analyzed with a Leica DMi8 fluorescent microscope and LASX software (Leica, Germany) and comets were scored with CometScore 2.0 (Rex A. Hoover, www.rexhoover.com). At least 100 comets were scored per condition.

- GI50 [1]: 8.9 µM
- IC50 (HL-60 cells): 6.9 µM
Compound: CCOc1c2c(c3cnc4cc(C)c(C)cc4n13)SSSSS2 [Compound 4]
- percentage of intact DNA in comet head (HAP-1 cells): 66%
